{"source": "patent EP0207599A1", "about": "“Arachidonic acid analogues” (BEECHAM GROUP PLC, priority 1985, dated 1987)", "data": [{"tested_on": "Phospholipase A2 (Naja naja venom , Sigma)", "assay": "Inhibition of phospholipase A2 activity (release of 14C-arachidonic acid from phosphatidylcholine substrate)", "type": "biochemical", "conditions": "at 20µM; mean ± standard deviation of triplicate samples; 37°C, pH 8.7, CaCl2 4mM", "procedure": "Method For The Measurement of Inhibition of Phospholipase A2 Activity\nEnzyme: Phospholipase A2 (Naja naja venom , Sigma)\nSubstrate: Diarachidoyl phosphatidylcholine (10.6mg) and α-1-palmitayl-2-[1-^14C]-arachidonyl phosphatidylcholine (0.5pCi; 52.9nCi/mMol) in 28ml of TrisHCl buffer = […], pH 8.7) ultrasonicated.\nAssay: Incubations containing PLA2 (0.125ng) in Tris HC1 buffer (100mM, pH 8.7) and CaCl2 (4mM) were prepared on ice. Immediately prior to incubation at 37°C 5µl of DMSO or compound in DMSO were added. The final assay volume was 1.75ml. After 10 minutes incubation at 37°C 750pl of substrate was added, with mixing, and the incubation continued for a further 15 min. The reaction is terminated by placing on ice and adding 5m1 CHCl3:MeOH (2:1v/v).\nThe lower organic phase is remaved ahd stored under N2 at -20°C until analysed. Analysis is by 1-dimensional t.l.c. on polygram Sil G sheets in the solvent system: petroleum ether: diethyl ether: acetic acid (60:40:1, v/v). In this solvent system the phospholipid remains at the origin and the arachidonic acid has an approximate Rf. value of 0.36. The areas of interest are cut from the plates and their radioactivity determined by liquid scintillation counting.\nAll compounds are tested in triplicate.\nCalculation: The radioactivity of the arachidonic acid is expressed as a percentage of the total dpm cut from the plate. The percentage inhibition of arachidonic acid release compared to that of the control is calculated after correction for the level of spontaneous release where: • x = % corrected mean arachidonic acid release in control • y = % corrected arachidonic acid release after inhibition [formula]\nThe nean of the triplicate sanples is calculated giving z ± standard deviation %.", "units": {"Percent inhibition of phospholipase A2 at x µM concentration.": "at 20µM %"}, "values": [{"molecule": "CCCCCC/C=C\\c1ccccc1/C=C\\CCCC(=O)O", "note": "[Example 25, 6-[2-((Z)-1-octenyl)phenyl]-(Z)-hex-5-en-1-oic acid]", "Percent inhibition of phospholipase A2 at x µM concentration.": "69.8± 8.3"}, {"molecule": "CCCCCCC#Cc1cccc(/C=C/CCCC(=O)O)c1", "note": "[Example 5, 6-[3-(1-Octynyl)phenyl]-E-hex-5-en-1-oic acid]", "Percent inhibition of phospholipase A2 at x µM concentration.": "78.9± 4.7"}, {"molecule": "CCCCCC/C=C\\c1ccccc1/C=C\\CCC(C(=O)O)C(=O)O", "note": "[Example 15, 2-(4-[2-(Z)-1-Octenyl)phenyl-(Z)-but-3-enyl)malonic acid]", "Percent inhibition of phospholipase A2 at x µM concentration.": "65.0± 17.0"}, {"molecule": "CCCCCC/C=C\\c1ccccc1/C=C/CCCC(=O)O", "note": "[Example 3, 6-[2-(Z-1-Octenyl)phenyl]-E-hex-5-en-1-oic acid]", "Percent inhibition of phospholipase A2 at x µM concentration.": "72.9± 10.3"}, {"molecule": "6-[2-(1-Octynyl)phenyl)hex-5-yn-1-oic acid [Example 23]", "Percent inhibition of phospholipase A2 at x µM concentration.": "25.0± 19.0"}, {"molecule": "6-(2-(1-Octynyl)pheny]-E-hex-5-en-1-oic acid [Example 2]", "Percent inhibition of phospholipase A2 at x µM concentration.": "76.2± 13.9"}, {"molecule": "CCCCCCC#Cc1ccccc1C#CCCC(C(=O)O)C(=O)O", "note": "[Example 13, 2-(4-[2-(1-octynyl)phenyl]-but-3-ynyl)malonic acid.]", "Percent inhibition of phospholipase A2 at x µM concentration.": "23.1± 17.6"}, {"molecule": "CCCCCCC#Cc1ccccc1C#CCCC(C(=O)O)C(=O)OC(C)(C)C", "note": "(centres unmarked) [Example 21, 2-(4-[2-(1-Octynyl)phenyl]-but-3-ynyl)malonic acid monotertbutyl ester]", "Percent inhibition of phospholipase A2 at x µM concentration.": "62.0± 4.4"}]}]}
